Measurements: ChEMBL document CHEMBL1201862, “PubChem BioAssay data set” (2004)
The source made the active and inactive calls.

Legend:
[1] = molecular target: Cytochrome P450 2C9 (Homo sapiens, UniProt P11712)
[2] = loss of viability in HepG2 cells – cell-based, CellTiter-Glo, cherry-picked, cytotoxicity control for Shn3 inhibitor project, dose response (AID 624134); assay type: functional
[3] = molecular target: Cytochrome P450 3A4 (Homo sapiens, UniProt P08684);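 also: CYP3A4 tested as one member of a cytochrome P450 panel screen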
Sequence of Cytochrome P450 3A4 (P08684 whole entry): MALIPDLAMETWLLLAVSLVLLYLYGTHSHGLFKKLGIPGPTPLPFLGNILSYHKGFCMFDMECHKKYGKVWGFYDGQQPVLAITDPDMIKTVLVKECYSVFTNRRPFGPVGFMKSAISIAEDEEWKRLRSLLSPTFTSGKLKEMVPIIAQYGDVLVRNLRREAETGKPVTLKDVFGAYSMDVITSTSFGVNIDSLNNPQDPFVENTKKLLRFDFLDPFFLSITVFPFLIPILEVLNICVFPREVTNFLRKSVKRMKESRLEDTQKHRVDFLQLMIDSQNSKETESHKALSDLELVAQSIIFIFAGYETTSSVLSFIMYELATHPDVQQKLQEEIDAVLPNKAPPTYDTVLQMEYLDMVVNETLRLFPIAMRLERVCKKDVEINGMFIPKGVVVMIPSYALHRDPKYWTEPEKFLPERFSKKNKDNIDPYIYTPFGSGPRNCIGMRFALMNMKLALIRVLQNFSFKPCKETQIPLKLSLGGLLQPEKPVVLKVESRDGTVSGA

[4] = molecular target: Cytochrome P450 2D6 (Homo sapiens, UniProt P10635);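 also: CYP2D6 member of a cytochrome P450 panel assay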
Sequence of Cytochrome P450 2D6 (P10635 whole entry): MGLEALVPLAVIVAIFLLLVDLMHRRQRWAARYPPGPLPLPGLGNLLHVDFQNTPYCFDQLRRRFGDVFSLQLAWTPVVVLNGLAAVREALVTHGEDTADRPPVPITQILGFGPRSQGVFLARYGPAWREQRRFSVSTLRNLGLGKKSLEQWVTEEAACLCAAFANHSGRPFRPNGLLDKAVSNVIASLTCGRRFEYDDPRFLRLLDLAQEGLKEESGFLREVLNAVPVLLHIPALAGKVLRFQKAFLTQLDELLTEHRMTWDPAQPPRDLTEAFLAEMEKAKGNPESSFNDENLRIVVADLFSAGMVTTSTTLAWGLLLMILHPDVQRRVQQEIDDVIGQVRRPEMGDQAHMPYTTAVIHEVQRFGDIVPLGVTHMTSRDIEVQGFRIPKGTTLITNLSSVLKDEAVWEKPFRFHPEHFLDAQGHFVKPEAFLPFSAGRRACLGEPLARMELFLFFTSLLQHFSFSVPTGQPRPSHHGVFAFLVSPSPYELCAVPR

[5] = non-specific 3'UTR reporter inhibition in Clone20-Shn3RL – cell-based, Renilla luciferase, cherry-picked, counter-screen for Shn3 inhibitor project, dose response (AID 624133); assay type: functional
[6] = molecular target: T1, Methionyl-tRNA synthetase, putative (Trypanosoma brucei brucei, UniProt Q38C91); assay type: functional, Trypanosoma brucei brucei strain 927/4 GUTat10.1
T1 sequence (Q38C91 whole entry): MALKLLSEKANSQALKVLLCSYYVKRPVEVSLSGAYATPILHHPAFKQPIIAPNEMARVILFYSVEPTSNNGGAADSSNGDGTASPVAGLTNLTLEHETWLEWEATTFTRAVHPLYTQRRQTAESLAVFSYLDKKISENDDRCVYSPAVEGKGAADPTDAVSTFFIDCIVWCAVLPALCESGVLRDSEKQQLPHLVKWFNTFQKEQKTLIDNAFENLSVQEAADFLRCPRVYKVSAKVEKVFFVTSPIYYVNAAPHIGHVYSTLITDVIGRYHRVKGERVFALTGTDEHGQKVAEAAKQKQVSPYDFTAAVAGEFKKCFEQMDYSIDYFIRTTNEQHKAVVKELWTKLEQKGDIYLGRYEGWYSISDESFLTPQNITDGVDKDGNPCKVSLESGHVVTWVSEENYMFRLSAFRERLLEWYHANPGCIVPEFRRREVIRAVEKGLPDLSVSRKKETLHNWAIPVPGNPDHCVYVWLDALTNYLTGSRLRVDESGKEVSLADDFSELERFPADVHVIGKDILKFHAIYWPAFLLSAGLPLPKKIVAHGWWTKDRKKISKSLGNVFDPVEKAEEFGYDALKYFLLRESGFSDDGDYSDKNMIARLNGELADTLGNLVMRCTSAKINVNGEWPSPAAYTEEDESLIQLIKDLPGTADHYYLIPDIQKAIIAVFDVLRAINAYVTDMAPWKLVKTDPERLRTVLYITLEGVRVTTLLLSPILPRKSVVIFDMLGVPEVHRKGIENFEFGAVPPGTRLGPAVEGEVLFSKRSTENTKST

[7] = Counterscreen for inhibitors of Trypanosoma brucei methionyl tRNA synthetase (MetRS): Luminescence-based cell-based high throughput dose response assay to identify compounds that are cytotoxic to Jurkat human T lymphocyte cells.; assay type: functional
[8] = molecular target: T1, Methionyl-tRNA synthetase, putative; assay type: functional, Trypanosoma brucei brucei strain 927/4 GUTat10.1; remark: listed apart in the source
[9] = reduction of Shn3 3'UTR-driven luciferase in osteoblasts – cell-based, Clone20 osteoblasts, firefly luciferase, cherry-picked, dose response (AID 624132); assay type: functional;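 also: firefly luciferase luminescence from reporter carrying the Shn3 3'UTR in osteoblasts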
[10] = molecular target: DNA repair and recombination protein RAD54-like (Homo sapiens, UniProt Q92698); assay: RAD54 Holliday junction migration blockers – biochemical, fluorescence, cherry-picked samples, dose series, confirmation (AID 651657); assay type: functional
Sequence of DNA repair and recombination protein RAD54-like (Q92698 whole entry): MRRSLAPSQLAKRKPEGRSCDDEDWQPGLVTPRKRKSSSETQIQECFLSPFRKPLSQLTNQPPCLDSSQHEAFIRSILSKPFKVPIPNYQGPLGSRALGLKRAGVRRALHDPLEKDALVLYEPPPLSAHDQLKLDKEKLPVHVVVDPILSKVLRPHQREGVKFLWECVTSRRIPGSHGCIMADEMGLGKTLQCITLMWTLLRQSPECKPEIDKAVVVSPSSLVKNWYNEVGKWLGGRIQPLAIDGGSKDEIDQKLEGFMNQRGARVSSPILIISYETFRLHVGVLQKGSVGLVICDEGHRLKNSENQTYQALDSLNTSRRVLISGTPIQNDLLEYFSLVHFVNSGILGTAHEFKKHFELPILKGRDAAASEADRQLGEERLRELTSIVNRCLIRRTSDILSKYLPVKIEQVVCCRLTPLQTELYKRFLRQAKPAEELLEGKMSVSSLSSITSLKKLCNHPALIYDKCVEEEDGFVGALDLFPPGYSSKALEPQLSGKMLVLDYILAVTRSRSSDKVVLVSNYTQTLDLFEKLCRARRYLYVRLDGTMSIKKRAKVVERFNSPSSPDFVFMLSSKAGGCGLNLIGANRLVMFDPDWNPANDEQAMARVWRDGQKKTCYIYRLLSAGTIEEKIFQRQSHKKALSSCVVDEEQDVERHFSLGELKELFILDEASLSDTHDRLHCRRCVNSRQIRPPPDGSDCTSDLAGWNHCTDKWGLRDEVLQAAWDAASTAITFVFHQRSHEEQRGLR

[11] = molecular target: Cytochrome P450 2C19 (Homo sapiens, UniProt P33261); assay: Cytochrome panel assay with activity outcomes. Panel member name: p450-cyp2c19 Compounds with AC50 equal or less than 10 uM are considered active; assay type: functional; details: read-out: AC50
Sequence of Cytochrome P450 2C19 (P33261 whole entry, the tested form may be a part): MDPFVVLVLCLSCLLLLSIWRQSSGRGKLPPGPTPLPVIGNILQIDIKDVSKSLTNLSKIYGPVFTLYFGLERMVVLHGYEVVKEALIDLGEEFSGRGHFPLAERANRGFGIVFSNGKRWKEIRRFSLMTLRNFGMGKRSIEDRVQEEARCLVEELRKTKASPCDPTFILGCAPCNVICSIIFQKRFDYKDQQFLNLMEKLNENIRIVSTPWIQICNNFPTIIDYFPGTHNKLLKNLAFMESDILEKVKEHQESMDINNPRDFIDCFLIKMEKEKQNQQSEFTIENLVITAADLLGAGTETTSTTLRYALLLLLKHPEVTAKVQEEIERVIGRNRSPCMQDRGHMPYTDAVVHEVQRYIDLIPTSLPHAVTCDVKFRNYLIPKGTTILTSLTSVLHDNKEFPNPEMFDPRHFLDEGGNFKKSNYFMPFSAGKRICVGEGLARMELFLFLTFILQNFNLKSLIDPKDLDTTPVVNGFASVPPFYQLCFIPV

[12] = molecular target: Photoreceptor-specific nuclear receptor (Homo sapiens, UniProt Q9Y5X4); assay type: functional, cell-based;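 also: CHO-S cells with Gal4-NCOR and VP16-NR2E3 two-hybrid luciferase reporter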
Sequence of Photoreceptor-specific nuclear receptor (Q9Y5X4 whole entry, the tested form may be a part): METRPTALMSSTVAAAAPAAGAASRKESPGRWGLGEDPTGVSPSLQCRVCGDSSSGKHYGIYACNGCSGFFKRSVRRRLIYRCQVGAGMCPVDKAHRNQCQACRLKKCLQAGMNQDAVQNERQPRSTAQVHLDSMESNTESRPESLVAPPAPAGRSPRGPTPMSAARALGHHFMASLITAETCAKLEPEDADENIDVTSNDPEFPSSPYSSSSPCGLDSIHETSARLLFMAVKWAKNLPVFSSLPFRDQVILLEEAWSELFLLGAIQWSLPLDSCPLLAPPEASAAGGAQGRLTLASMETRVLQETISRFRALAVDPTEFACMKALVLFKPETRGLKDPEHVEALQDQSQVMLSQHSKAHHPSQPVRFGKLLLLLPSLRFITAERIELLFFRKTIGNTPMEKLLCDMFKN

[13] = molecular target: T2, Sentrin-specific protease 1 (Homo sapiens, UniProt Q9P0U3); assay: SENP1 catalytic domain blockers, concentration series – biochemical, kinetic FRET, dose response (AID 651697); assay type: functional; details: read-out: IC50_Mean
T2 sequence (Q9P0U3 whole entry, the tested form may be a part): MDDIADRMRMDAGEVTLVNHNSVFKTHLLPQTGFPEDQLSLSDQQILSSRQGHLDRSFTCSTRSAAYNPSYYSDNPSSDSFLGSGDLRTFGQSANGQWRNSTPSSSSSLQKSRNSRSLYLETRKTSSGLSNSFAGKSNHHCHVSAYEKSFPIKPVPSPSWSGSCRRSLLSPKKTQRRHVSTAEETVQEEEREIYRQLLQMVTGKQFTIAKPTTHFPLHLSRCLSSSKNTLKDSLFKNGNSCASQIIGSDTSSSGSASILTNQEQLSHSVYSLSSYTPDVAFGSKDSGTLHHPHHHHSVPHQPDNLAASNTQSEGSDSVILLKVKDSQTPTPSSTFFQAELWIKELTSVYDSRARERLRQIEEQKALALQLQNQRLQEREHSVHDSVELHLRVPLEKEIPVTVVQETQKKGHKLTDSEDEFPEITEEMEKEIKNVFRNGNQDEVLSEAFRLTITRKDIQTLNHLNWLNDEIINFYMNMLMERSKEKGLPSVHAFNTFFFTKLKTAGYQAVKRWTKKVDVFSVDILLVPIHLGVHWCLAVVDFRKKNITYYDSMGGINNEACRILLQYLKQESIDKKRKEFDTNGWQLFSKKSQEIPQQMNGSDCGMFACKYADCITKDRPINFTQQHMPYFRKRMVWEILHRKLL

[14] = molecular target: T2, Sentrin-specific protease 1; assay: Dose response confirmation of small molecule inhibitors of the catalytic domain of the SUMO protease, SENP1 in a FRET assay.; assay type: functional; details: read-out: IC50_Mean

Sequence of Cytochrome P450 2C9 (P11712 whole entry): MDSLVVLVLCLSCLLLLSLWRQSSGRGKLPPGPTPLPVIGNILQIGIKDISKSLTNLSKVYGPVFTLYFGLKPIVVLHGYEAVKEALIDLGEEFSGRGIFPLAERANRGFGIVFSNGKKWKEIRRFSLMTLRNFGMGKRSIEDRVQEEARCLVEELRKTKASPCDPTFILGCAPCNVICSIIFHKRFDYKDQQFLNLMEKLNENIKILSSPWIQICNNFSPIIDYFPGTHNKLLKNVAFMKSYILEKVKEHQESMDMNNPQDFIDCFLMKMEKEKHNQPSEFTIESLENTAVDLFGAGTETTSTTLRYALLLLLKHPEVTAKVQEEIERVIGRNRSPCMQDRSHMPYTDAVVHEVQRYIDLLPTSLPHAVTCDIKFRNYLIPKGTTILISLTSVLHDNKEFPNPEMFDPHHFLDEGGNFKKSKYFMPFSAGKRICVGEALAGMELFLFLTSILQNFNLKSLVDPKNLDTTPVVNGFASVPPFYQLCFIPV

For Nc1nc(N)c(-c2cccc(C(F)(F)F)c2)c(Cc2cccc(C(F)(F)F)c2)n1, the AC50 [1] was 5.01 µM (inconclusive), the AC50 [2] was 5.88 µM (active) and the AC50 [3] was 3.16 µM (inconclusive). The AC50 [4] was 3.98 µM (inconclusive), the AC50 [5] was 3.87 µM (active) and the IC50 [6] was 12.7 µM (inactive). For the same molecule, the IC50 [7] was 20.7 µM (inactive), the IC50 [8] was 19.5 µM (inactive) and the AC50 [9] was 3.6 µM (active).

For COc1cccc(-c2nc(N3CCN(Cc4ccccc4)CC3)c3ccccc3n2)c1O, the AC50 [10] was 100 µM (inactive).

With O=c1cc(N2CCN(c3ccccc3)CC2)[nH]c(=O)n1C1CCCCC1 the AC50 [1] was 15.8 µM (inconclusive), the AC50 [3] was 6.31 µM (inconclusive) and the AC50 [11] was 3.16 µM (inconclusive). The IC50 [12] was 0.511 µM (active).

In the case of CCn1c(/C=C/c2cc(Br)ccc2O)nc2ccccc2c1=O, the IC50 [13] is reported as 12.5 µM (active) and the IC50 [14] is reported as 5.9 µM (active).
